Measured values from ChEMBL document CHEMBL4765284, “Optimization of 5-substituted thiazolyl ureas and 6-substituted imidazopyridines as potential HIV-1 latency reversing agents” (Eur J Med Chem, 2020).
Converted amounts (≈) assume the structure as drawn.

Key:
[1] = test system: Human immunodeficiency virus 1; test: Antiviral activity against HIV-1 infected in J-Lat 10.6 cells assessed as maximal activation of long terminal repeat driven gene expression incubated for 48 hrs by green fluorescent protein based cellular assay; type: functional, organism-based; conditions: Human immunodeficiency virus 1, J-Lat 10.6, 48 h
Cyclin-T2 (Homo sapiens) = Cyclin-T2 (Homo sapiens) (UniProt O60583); test: Inhibition of cyclin T2 (unknown origin) at 0.5 uM
Cyclin-T1 (Homo sapiens) = Cyclin-T1 (Homo sapiens) (UniProt O60563); test: Inhibition of cyclin T1 (unknown origin) at 0.5 uM
[2] = Aqueous solubility of compound at pH 2 by nephelometry; type: physicochemical
[3] = molecular target: Cyclin-dependent kinase 9 (Homo sapiens) (UniProt P50750); test: Inhibition of CDK9 (unknown origin) at 0.5 uM
Cyclin-K (Homo sapiens) = molecular target: T1, Cyclin-K (Homo sapiens) (UniProt O75909); test: Inhibition of cyclin K (unknown origin) at 0.5 uM
T1 sequence (whole entry): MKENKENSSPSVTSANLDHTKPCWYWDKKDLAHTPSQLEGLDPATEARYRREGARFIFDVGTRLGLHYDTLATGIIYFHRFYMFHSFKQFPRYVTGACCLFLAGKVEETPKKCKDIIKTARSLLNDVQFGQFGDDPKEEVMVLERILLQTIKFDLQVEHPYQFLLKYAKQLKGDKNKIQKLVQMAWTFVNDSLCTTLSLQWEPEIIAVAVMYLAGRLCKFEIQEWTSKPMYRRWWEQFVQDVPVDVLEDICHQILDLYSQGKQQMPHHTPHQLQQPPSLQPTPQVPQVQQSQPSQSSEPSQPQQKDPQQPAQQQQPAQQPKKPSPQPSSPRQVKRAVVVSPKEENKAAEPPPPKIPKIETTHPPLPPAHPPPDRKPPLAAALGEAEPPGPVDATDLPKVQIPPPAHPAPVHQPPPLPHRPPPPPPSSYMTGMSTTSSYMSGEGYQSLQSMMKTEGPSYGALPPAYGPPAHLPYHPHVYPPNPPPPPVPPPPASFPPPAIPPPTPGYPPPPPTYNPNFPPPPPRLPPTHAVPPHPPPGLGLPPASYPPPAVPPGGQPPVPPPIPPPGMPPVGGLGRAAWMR

[4] = Aqueous solubility of compound at pH 6.5 by nephelometry; type: physicochemical
[5] = test system: Human immunodeficiency virus 1; test: Antiviral activity against HIV-1 infected in FlpIn-HEK293 cells assessed as maximal activation of long terminal repeat driven gene expression at 0.25 uM incubated for 48 hrs by luciferase based cellular assay relative to control; type: functional
[6] = Metabolic stability in mouse liver microsomes assessed as half life at 1 uM measured upto 60 mins by LC-MS anlaysis; type: ADME, Microsome
[7] = test system: Human immunodeficiency virus 1; test: Antiviral activity against HIV-1 infected in J-Lat 10.6 cells assessed as maximal activation of long terminal repeat driven gene expression at 1 uM incubated for 48 hrs by green fluorescent protein based cellular assay relative to control; type: functional
[8] = Metabolic stability in mouse liver microsomes assessed as intrinsic clearance at 1 uM measured upto 60 mins by LC-MS anlaysis; type: ADME, Microsome; conditions: read-out: CLH
[9] = Cytotoxicity against human HepG2 cells assessed as growth incubation incubated for 48 hrs by cell titer glo assay; type: cell-based
[10] = test system: Human immunodeficiency virus 1; test: Antiviral activity against HIV-1 infected in FlpIn-HEK293 cells assessed as activation of long terminal repeat driven gene expression incubated for 72 hrs by luciferase based cellular assay; type: functional, organism-based; conditions: Human immunodeficiency virus 1, HEK293, 72 h
Cytomegalovirus = test: Antiviral activity against CMV infected in FlpIn-HEK293 cells assessed as click beetle green reporter driven gene expression incubated for 72 hrs by luciferase based cellular assay; type: functional, organism-based; conditions: HEK293, 72 h
[11] = test system: Human immunodeficiency virus 1; test: Antiviral activity against HIV-1 infected in FlpIn-HEK293 cells assessed as maximal activation of long terminal repeat driven gene expression at 0.31 uM incubated for 48 hrs by luciferase based cellular assay relative to control; type: functional
[12] = test system: Human immunodeficiency virus 1; test: Antiviral activity against HIV-1 infected in J-Lat 10.6 cells assessed as maximal activation of long terminal repeat driven gene expression at 0.25 uM incubated for 48 hrs by green fluorescent protein based cellular assay relative to control; type: functional
[13] = Metabolic stability in human liver microsomes assessed as half life at 1 uM measured upto 60 mins by LC-MS anlaysis; type: ADME, Microsome
[14] = Metabolic stability in human liver microsomes assessed as intrinsic clearance at 1 uM measured upto 60 mins by LC-MS analysis; type: ADME, Microsome; conditions: read-out: CLH
[15] = test system: Human immunodeficiency virus 1; test: Antiviral activity against HIV-1 infected in FlpIn-HEK293 cells assessed as maximal activation of long terminal repeat driven gene expression at 0.16 uM incubated for 48 hrs by luciferase based cellular assay relative to control; type: functional
[16] = test system: Human immunodeficiency virus 1; test: Antiviral activity against HIV-1 infected in FlpIn-HEK293 cells assessed as maximal activation of long terminal repeat driven gene expression at 5 uM incubated for 48 hrs by luciferase based cellular assay relative to control; type: functional
[17] = test system: Human immunodeficiency virus 1; test: Antiviral activity against HIV-1 infected in FlpIn-HEK293 cells assessed as maximal activation of long terminal repeat driven gene expression at 0.63 uM incubated for 48 hrs by luciferase based cellular assay relative to control; type: functional
[18] = test system: Human immunodeficiency virus 1; test: Antiviral activity against HIV-1 infected in J-Lat 10.6 cells assessed as maximal activation of long terminal repeat driven gene expression at 2 uM incubated for 48 hrs by green fluorescent protein based cellular assay relative to control; type: functional
[19] = test system: Human immunodeficiency virus 1; test: Antiviral activity against HIV-1 infected in FlpIn-HEK293 cells assessed as maximal activation of long terminal repeat driven gene expression at 0.13 uM incubated for 48 hrs by luciferase based cellular assay relative to control; type: functional

Cyclin-T2 (Homo sapiens), sequence (O60583 whole entry): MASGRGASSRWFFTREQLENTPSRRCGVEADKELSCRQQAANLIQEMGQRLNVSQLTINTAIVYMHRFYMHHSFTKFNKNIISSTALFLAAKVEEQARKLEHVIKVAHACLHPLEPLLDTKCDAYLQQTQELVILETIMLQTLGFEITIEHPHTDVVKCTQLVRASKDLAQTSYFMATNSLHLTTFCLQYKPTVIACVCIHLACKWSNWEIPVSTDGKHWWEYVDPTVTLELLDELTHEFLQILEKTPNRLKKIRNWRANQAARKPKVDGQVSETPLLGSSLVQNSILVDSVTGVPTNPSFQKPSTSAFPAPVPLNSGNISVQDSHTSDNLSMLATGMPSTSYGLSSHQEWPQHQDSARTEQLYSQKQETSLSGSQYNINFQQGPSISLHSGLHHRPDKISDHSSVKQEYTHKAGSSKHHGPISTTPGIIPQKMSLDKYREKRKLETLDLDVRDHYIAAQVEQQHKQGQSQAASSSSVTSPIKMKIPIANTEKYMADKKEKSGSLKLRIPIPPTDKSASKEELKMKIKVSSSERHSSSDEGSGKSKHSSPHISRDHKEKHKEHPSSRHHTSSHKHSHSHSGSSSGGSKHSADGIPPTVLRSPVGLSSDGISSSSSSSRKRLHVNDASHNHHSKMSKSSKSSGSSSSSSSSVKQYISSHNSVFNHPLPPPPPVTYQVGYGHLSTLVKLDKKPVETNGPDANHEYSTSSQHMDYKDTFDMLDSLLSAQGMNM
Cyclin-T1 (Homo sapiens), sequence (O60563 whole entry): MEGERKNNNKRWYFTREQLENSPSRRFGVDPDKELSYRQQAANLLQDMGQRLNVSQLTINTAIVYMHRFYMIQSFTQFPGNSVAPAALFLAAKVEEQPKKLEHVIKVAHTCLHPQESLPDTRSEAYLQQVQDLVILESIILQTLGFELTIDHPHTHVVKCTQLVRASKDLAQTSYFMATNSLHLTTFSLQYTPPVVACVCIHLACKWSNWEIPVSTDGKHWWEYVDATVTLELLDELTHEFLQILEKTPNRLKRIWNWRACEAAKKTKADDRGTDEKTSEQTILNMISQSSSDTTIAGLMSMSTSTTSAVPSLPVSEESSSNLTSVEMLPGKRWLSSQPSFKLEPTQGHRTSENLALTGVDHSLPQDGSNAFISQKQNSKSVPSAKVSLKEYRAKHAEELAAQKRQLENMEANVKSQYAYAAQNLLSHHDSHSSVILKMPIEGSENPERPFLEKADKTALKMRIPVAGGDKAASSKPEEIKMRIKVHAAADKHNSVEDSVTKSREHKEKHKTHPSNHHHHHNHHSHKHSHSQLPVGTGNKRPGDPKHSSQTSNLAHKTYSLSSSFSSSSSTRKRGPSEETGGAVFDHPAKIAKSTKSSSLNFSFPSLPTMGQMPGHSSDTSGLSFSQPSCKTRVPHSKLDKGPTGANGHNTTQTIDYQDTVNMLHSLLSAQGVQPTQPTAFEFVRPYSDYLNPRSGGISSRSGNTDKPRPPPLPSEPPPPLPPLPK
Cyclin-dependent kinase 9 (Homo sapiens), sequence (P50750 whole entry): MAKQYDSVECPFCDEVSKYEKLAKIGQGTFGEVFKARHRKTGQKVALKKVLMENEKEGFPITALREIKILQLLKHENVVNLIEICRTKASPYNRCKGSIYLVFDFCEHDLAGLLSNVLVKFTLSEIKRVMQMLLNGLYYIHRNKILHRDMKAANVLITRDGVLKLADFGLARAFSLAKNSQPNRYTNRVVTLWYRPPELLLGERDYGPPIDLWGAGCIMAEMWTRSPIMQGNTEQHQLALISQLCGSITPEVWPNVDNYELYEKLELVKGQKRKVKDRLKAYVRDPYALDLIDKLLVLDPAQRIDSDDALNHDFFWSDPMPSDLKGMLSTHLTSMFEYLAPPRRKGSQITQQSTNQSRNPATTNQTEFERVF

SMILES	EC50 [1] [nM]	solubility kinetic [2] [µM]	solubility kinetic [4] [µM]	half-life at 1 µM [6] [min]	microsomal CLint at 1 µM [8] [µL/min/mg]	EC50 [10] [nM]	EC50 (Cytomegalovirus) [nM]	half-life at 1 µM [13] [min]	microsomal CLint at 1 µM [14] [µL/min/mg]	CC50 at 48 h [9] [nM]	also measured
N#Cc1cccc(N2CCN(C(=O)Nc3ncc(Cl)s3)CC2)c1	480	< 1.6	< 1.6	46	38	610	500			50	%max [11]: 22%; %max [12]: 28%
Cc1ccc(OCCCc2nc3cc(Cl)cnc3[nH]2)cc1Cl		1.6 (≈ 0.538 µg/mL)	< 1.6	< 2	> 866	9400	12000	5	329		
Cc1cnc(NC(=O)CCCOc2ccc(Cl)c(C)c2)s1		< 1.1	1.1 (≈ 0.357 µg/mL)	2	815			10	175		
Cc1cc(NC2CCN(C(=O)Nc3ncc(Cl)s3)C2)ccc1Cl (stereo not drawn)	3000	6.3 (≈ 2.34 µg/mL)	1.6 (≈ 0.594 µg/mL)	11	151	790	1800			680	%max [17]: 39%; %max [18]: 20%
Cc1cnc2[nH]c(N3CCN(c4ccc(C)c(Cl)c4)CC3)nc2c1		50 (≈ 17.1 µg/mL)	< 1.6	8	224	3200	2800	15	115		
Clc1cnc2[nH]c(CCCOc3cnc(Cl)c(Cl)c3)nc2c1	> 4000	12.5 (≈ 4.47 µg/mL)	1.6 (≈ 0.572 µg/mL)	14	122	6400	2400			1900	%max [19]: 26%; %max [18]: 11%
Cc1ccc(N2CCN(C(=O)Nc3ncc(Cl)s3)CC2=O)cc1Cl	2700	1.6 (≈ 0.616 µg/mL)	1.6 (≈ 0.616 µg/mL)	60	29	640	13000			42000	%max [11]: 47%; %max [18]: 38%

Now from value to molecule, other results behind:

EC50 [1] [nM]	solubility kinetic [2] [µM]	solubility kinetic [4] [µM]	half-life at 1 µM [6] [min]	microsomal CLint at 1 µM [8] [µL/min/mg]	EC50 [10] [nM]	EC50 (Cytomegalovirus) [nM]	half-life at 1 µM [13] [min]	microsomal CLint at 1 µM [14] [µL/min/mg]	SMILES	CC50 at 48 h [9] [nM]	also measured
1700	< 1.6	< 1.6	33	53	240	670			Cc1ccc(N2CCN(C(=O)Nc3ncc(Cl)s3)CC2)cc1Cl	250	inhibition (Cyclin-T2 (Homo sapiens)): 40%; inhibition (Cyclin-T1 (Homo sapiens)): 40%; inhibition [3]: 40%; inhibition (Cyclin-K (Homo sapiens)): 40%; %max [5]: 53%; %max [7]: 23%
1500	1.6 (≈ 0.572 µg/mL)	1.6 (≈ 0.572 µg/mL)	36	49	230	1700			Cc1ccc(NC2CN(C(=O)Nc3ncc(Cl)s3)C2)cc1Cl	330	%max [5]: 63%; %max [7]: 31%
1100	< 1.6	< 1.6	80	22	390	150			N#Cc1cnc(NC(=O)N2CCN(c3cnc(Cl)c(Cl)c3)CC2)s1	120	%max [15]: 25%; %max [12]: 28%
1600	< 1.6	< 1.6	117	15	350	4400	151	11	N#Cc1cnc(NC(=O)N2CCN(c3ccc(Cl)c(Cl)c3)CC2)s1	410	%max [7]: 30%; %max [16]: 87%
